Experimental data reported in article PMC9823088, “The oral selective estrogen receptor degrader GDC-0810 (ARN-810) in postmenopausal women with hormone receptor-positive HER2-negative (HR + /HER2 −) advanced/metastatic breast cancer” (Breast Cancer Research and Treatment, 2022).

Experiment: Study drug exposure (treatment duration)
Type: in vivo, human
Details: phase Ia
Description: Patients in all three study phases continued treatment until unacceptable toxicity, disease progression, or consent withdrawal. See Supplementary Methods for other study treatment details.

For `CC/C(=C(/c1ccc(/C=C/C(=O)O)cc1)c1ccc2[nH]ncc2c1)c1ccc(F)cc1Cl` [GDC-0810], the “patients remaining on study treatment for 2 years” value was “Two”.
